In PubChem BioAssay AID624285 (Broad Institute, 2012):
Active and inactive are the calls of the source.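 How the source made its calls: active means signal-decreasing dose-response curve whose fitted half-maximal concentration is at or below twice the highest valid tested dose; inconclusive means flat fit at 30 to 70% signal loss, or poor fit; inactive means the rest.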

Assay: cytotoxicity in mammalian cells, dose response, cytotoxicity control for PDI inhibitor project, cell-based, 24 h, luminescence, cherry-picked samples (AID 624285)
Conditions: NIH3T3/HeLa viability, CellTiter-Glo ATP luminescence, 24 h

SMILES | activity change, negative = cytotoxicity (at 35 µM (top of the series)) | activity change, negative = cytotoxicity (at 30 µM (top of the series))
COCC(=O)NC1(c2nnnn2CCOC(=O)Nc2ccc(Cl)cc2)CCCCC1 | -7.94% (inactive) | 
Cc1noc(C)c1C(=O)OCC(=O)NCCc1ccc(Cl)cc1 | -14.2% (inactive) | 
CN(C)C(=O)CSc1nnc([C@H](Cc2c[nH]c3ccccc23)NC(=O)OC(C)(C)C)o1 | -2.37% (inactive) | 
CN(C)c1ccc(NC(=O)CN2C(=O)CC(c3ccccc3)=Nc3ccccc32)cc1 | -19.2% (inactive) | 
Cc1noc(C)c1S(=O)(=O)Nc1ccc2c(c1)CC(=O)N([C@@H](C)CO)C[C@H](C)[C@@H](CN(C)S(=O)(=O)c1ccc(F)cc1)O2 | 2.55% (inactive) | 
COC(=O)CC1OCC=C2CN3CCC45C6=CC(=O)C(=O)C([N+](=O)[O-])=C6NC4C1C2CC35 (centres undefined) | -13% (inactive) | 
O=C1[C@@H]2C(Cc3ccc(O)cc3)NC3(C(=O)Nc4ccc(F)cc43)[C@@H]2C(=O)N1c1ccccc1 (some centres undefined) | -14% (inactive) | 
C[C@H]1CN([C@@H](C)CO)C(=O)c2cc(NC(=O)Cc3cn(C)c4ccccc34)ccc2O[C@H]1CN(C)S(=O)(=O)c1ccc(F)cc1 | -5.48% (inactive) | 
CNc1ncnc2c1ncn2[C@H]1CN(Cc2cccc3ccccc23)C[C@@H](CO)O1 | -19.8% (inactive) | 
CC(=O)c1ccc(N2CCN(C(=O)c3ccc4[nH]c(C)c(C)c4c3)CC2)cc1 | -9.89% (inactive) | 
CC(=O)NC1(c2nnnn2CCOC(=O)Nc2ccc(Cl)cc2)CCCCC1 | 5.78% (inactive) | 
CCCNC(=O)Cn1c(-c2ccc(F)cc2)cc(C(=O)OCC)c1C | -18.9% (inactive) | 
Cc1cc(C)c2c(=O)n3c(nc2c1)C(Cc1ccc(O)cc1)NC(=O)c1cccnc1-3 (centres undefined) | -10.3% (inactive) | 
CCCCNC(=O)N1CCN(C(=O)C2CCCO2)CC1 (centres undefined) | -4.25% (inactive) | 
CC(NC(=O)COC(=O)Cc1ccccc1[N+](=O)[O-])c1ccccc1 (centres undefined) | -0.036% (inactive) | 
COCC(=O)N(C)C1(c2nnnn2CCOC(=O)Nc2ccc(Cl)cc2)CCCCC1 | -4.92% (inactive) | 
CCOC(=O)CN(c1ccccc1)S(=O)(=O)c1ccc(F)cc1 | -10.3% (inactive) | 
Cn1nnnc1SCC(=O)Nc1cc(C(F)(F)F)ccc1N1CCOCC1 | -9.83% (inactive) | 
O=C(Nc1oc2ccccc2c(=O)c1-c1ccc(Cl)cc1)c1ccco1 | -2.88% (inactive) | 
CC[C@]12c3[nH]c4cc(-c5ccco5)ccc4c3CCN1C(=O)[C@@H](CC(=O)NCc1ccc(OC)c(OC)c1)C[C@@H]2C(=O)N1CCN(C(=O)C2CC2)CC1 | -17.7% (inactive) | 
C[C@@H]1O[C@@H](Oc2c(-c3cc(O)c(O)c(O)c3)oc3cc(O)cc(O)c3c2=O)[C@H](O)[C@H](O)[C@H]1O | -5.81% (inactive) | 
CCOC(=O)c1c(CN(CC)CC)n(C)c2cc(Br)c(O)cc12 | -10.4% (inactive) | 
CC(=O)c1ccc(OCc2cc(C(=O)N3CCCCC3c3cccnc3)no2)cc1 (centres undefined) | -6.2% (inactive) | 
O=c1c(O[C@@H]2O[C@H](CO)[C@@H](O)[C@H](O)[C@H]2O)c(-c2ccc(O)cc2)oc2cc(O)cc(O)c12 | -2.51% (inactive) | 
NC(=O)CSc1nnc([C@@H](N)Cc2c[nH]c3ccccc23)o1 | -10.6% (inactive) | 

SMILES | activity change, negative = cytotoxicity (at 35 µM (top of the series)) | activity change, negative = cytotoxicity (at 30 µM (top of the series))
CCOC(=O)c1oc2cccc(O)c2c1CN(Cc1ccccc1)C(C)=O | -17.2% (inactive) | 
COc1ccc(C2c3ccc(O)cc3Oc3ncn(CCCO)c(=N)c32)cc1 (centres undefined) | -8.08% (inactive) | 
COc1cccc(/C=N/NC(=O)CNC(=O)C(c2ccccc2)c2ccccc2)c1O | -15.7% (inactive) | 
CSc1cccc(NC(=O)CN(C)S(=O)(=O)c2ccc(F)cc2)c1 | -8.11% (inactive) | 
Cc1ccc(O)c(NC(=O)CSc2n[nH]c(-c3ccccc3)n2)c1 | -16.4% (inactive) | 
C[C@H](CO)N1C[C@H](C)[C@@H](CN(C)S(=O)(=O)c2ccc(F)cc2)Oc2ccc(NC(=O)Cc3cn(C)c4ccccc34)cc2C1=O | -0.991% (inactive) | 
CCOc1ccc(/C=N/OC(C)C(=O)NCc2ccc3c(c2)OCO3)cc1 (centres undefined) | -5.51% (inactive) | 
COc1ccc(CNC(=O)c2ccc(CS(=O)Cc3cccc(Cl)c3)o2)cc1 (centres undefined) | -9.18% (inactive) | 
CN(C)CCN(C(=O)c1ccc(S(=O)(=O)N2CCc3ccccc32)cc1)c1nc2ccc(F)cc2s1 | -13.9% (inactive) | 
COc1cc(C(=O)N2CCN(C/C=C/c3ccccc3)CC2)cc(OC)c1OC | -12% (inactive) | 
CC(C)N1CCCC(C)(C(=O)Nc2nc3ccccc3n2C)C1 (centres undefined) | -8.91% (inactive) | 
S=C(NCCc1ccccc1)Nc1ccccn1 | -3.47% (inactive) | 
O=C1CN(c2nc3ccccc3n3cnnc23)CC(=O)N1CCc1ccccc1 | -8.64% (inactive) | 
COc1ccc(C2c3ccc(O)cc3Oc3ncn(Cc4ccco4)c(=N)c32)cc1OC (centres undefined) | -14.4% (inactive) | 
COc1ccc(CN(C)C[C@@H]2Oc3ccc(NC(=O)Nc4ccccc4)cc3CC(=O)N([C@H](C)CO)C[C@@H]2C)cc1 |  | -5.13% (inactive)
CC(=O)OCC(=O)NCc1ccc2c(c1)OCO2 | -5.14% (inactive) | 
COc1cccc(NS(=O)(=O)c2ccc3c(c2)C2C=CCC2C(c2ccc(C(=O)O)cc2)N3)c1 (centres undefined) | -7.82% (inactive) | 
COc1cccc(/C=C2\CCCCC2=O)c1 | -7.65% (inactive) | 
O=C(CNC(=O)c1n[nH]c2ccccc12)Nc1cc(Cl)ccc1Cl | -8.33% (inactive) | 
O=C(Cc1ccccc1)Nc1cccc(C(=O)N/N=C/c2ccco2)c1 | -4.58% (inactive) | 
CCOC(=O)c1c(-c2ccccc2)oc2cc(Br)c(O)cc12 | -20.5% (inactive) | 
C[C@H](CO)N1C[C@H](C)[C@H](CN(C)S(=O)(=O)c2ccc(F)cc2)Oc2ccc(NC(=O)Cc3cn(C)c4ccccc34)cc2C1=O | -6.42% (inactive) | 
COC(=O)C(Cc1ccc(O)cc1)N1Cc2ccccc2C1=O (centres undefined) | -9.13% (inactive) | 
Cc1ccc2c(=O)n3c(nc2c1)C(Cc1ccc(O)cc1)NC(=O)c1cccnc1-3 (centres undefined) | -12.6% (inactive) | 
NC1=NC[C@H](Cc2ccc(O)cc2)N1CC1CCCCC1 | -11.8% (inactive) | 

SMILES | activity change, negative = cytotoxicity (at 35 µM (top of the series)) | activity change, negative = cytotoxicity (at 30 µM (top of the series))
CC(Cc1ccc(O)cc1)NCC(O)c1ccc(O)c(O)c1 (centres undefined) | -7.22% (inactive) | 
Cc1ccc(C)c(NS(=O)(=O)c2c(C)nn(C)c2C)c1 | -1.82% (inactive) | 
O=C(NCc1ccncc1)Nc1cc(Cl)ccc1Cl | -6.87% (inactive) | 
Cc1c(-n2cc(C(=O)c3cc(Br)ccc3O)cc(C#N)c2=O)c(=O)n(-c2ccccc2)n1C | -12.8% (inactive) | 
Cc1ccc(S(=O)(=O)N2CCC(C(=O)Nc3ccc(S(=O)(=O)N4CCCC4)cc3)CC2)cc1 | -22.6% (inactive) | 
CC1CC(C)CN(C(=O)COC(=O)c2ccc[nH]c2=O)C1 (centres undefined) | -4.68% (inactive) | 
Cc1ccc(-c2cc(C(=O)NNC(=O)c3csc(N4CCOCC4)n3)c3ccccc3n2)cc1 | -13.2% (inactive) | 
Cc1noc(C)c1S(=O)(=O)Nc1ccc2c(c1)CC(=O)N([C@@H](C)CO)C[C@H](C)[C@H](CN(C)S(=O)(=O)c1ccc(F)cc1)O2 | 7.36% (inactive) | 
COc1ccc(C(=O)Nc2ccccc2C(=O)NCc2ccco2)cc1 | -14.7% (inactive) | 
Cc1cc(C)cc(OCC(=O)Nc2ccccc2C(=O)N2CCOCC2)c1 | -11.8% (inactive) | 
O=c1c(OC2OC(CO)C(O)C(O)C2O)c(-c2ccc(O)c(O)c2)oc2cc(O)cc(O)c12 (centres undefined) | -0.384% (inactive) | 
Cc1noc(C)c1S(=O)(=O)Nc1ccc2c(c1)CC(=O)N([C@@H](C)CO)C[C@@H](C)[C@H](CN(C)S(=O)(=O)c1ccc(F)cc1)O2 | -10.5% (inactive) | 
Cc1cc2c3c(c1)C1(C(=O)N3C(C)(C)CC2C)C(C#N)=C(N)Oc2n[nH]c(C)c21 (centres undefined) | -11.6% (inactive) | 
O=C(CN(CCc1ccccc1)C(=O)CNS(=O)(=O)c1ccccc1)NCC1CCCO1 (centres undefined) | -1.76% (inactive) | 
CCOC(C(=O)OCCCN(CC)CC)(c1ccccc1)c1ccccc1 | -17.8% (inactive) | 
Cc1c(-n2cc(C(=O)c3ccccc3O)cc(C#N)c2=O)c(=O)n(-c2ccccc2)n1C | -5.22% (inactive) | 
O=C(c1ccco1)N1CCN(Cc2cc(=O)oc3cc(O)ccc23)CC1 | -18% (inactive) | 
CC1(C(=O)NS(=O)(=O)c2ccccc2Cl)CCN1C(=O)c1ccccc1CCc1ccccc1 (centres undefined) | -8.92% (inactive) | 
CC[C@]12c3[nH]c4cc(-c5ccco5)ccc4c3CCN1C(=O)[C@@H](CC(=O)NCCCOC)C[C@@H]2C(=O)N1CCN(C(=O)C2CC2)CC1 | -8.63% (inactive) | 
O=C1C[C@@H](c2ccc(O[C@@H]3O[C@H](CO)[C@@H](O)[C@H](O)[C@H]3O)cc2)Oc2cc(O)ccc21 | -5.71% (inactive) | 
CCCCn1c(N)c(N(CC(C)C)C(=O)c2cc(-c3ccncc3)nc3ccccc23)c(=O)[nH]c1=O | -9.75% (inactive) | 
C[C@H](CO)N1C[C@H](C)[C@@H](CN(C)S(=O)(=O)c2ccc(F)cc2)Oc2ccc(NC(=O)Cc3ccccc3)cc2C1=O | -14.6% (inactive) | 
Cc1cccc(C(=O)OCC(=O)N2CCCCCC2)c1O | -10.1% (inactive) | 
O=C1C[C@H](c2ccc(O)cc2)Oc2cc(O[C@@H]3O[C@H](CO)[C@@H](O)[C@H](O)[C@H]3O)cc(O[C@@H]3O[C@H](CO)[C@@H](O)[C@H](O)[C@H]3O)c21 | -8.86% (inactive) | 
